Assay results reported in publication PMC4012000 (Pharmaceutical research, 2013).

System: Caco-2 cells
Test: Effect of curcumin on efflux transporters and permeability in Caco-2 cells
Format: cell-based
Settings: in vitro studies, data not shown

SMILES: COc1cc(/C=C/C(=O)CC(=O)/C=C/c2ccc(O)c(OC)c2)ccc1O [curcumin, Curcumin]
- effect on efflux transporters: down-regulation of BCRP, MDR1 and MRP1
